Results on one compound are retold here after patent US8722674B2, “1,3,5-triazine-2,4,6-triamine compound or pharmaceutical acceptable salt thereof, and pharmaceutical composition comprising the same” (Hanall Biopharma Co., Ltd., priority 2007, dated 2014).

Molecules are shown by their SMILES.

Data set [1] has as its system HepG2 cells. In words: Measurement of cholesterol synthesis ability (Amplex red fluorescence). It counts as cell-based. As to conditions: Homo sapiens; 100 uM, HepG2 cells, 24 h treatment; lower is better; read-out: cholesterol synthesis ability, % control.
Data set [2] relates to HepG2 cells. In words: Measurement of triglyceride (Amplex red fluorescence). It counts as cell-based. As to conditions: Homo sapiens, 100 uM, 24 h treatment, lower is better, read-out: triglyceride synthesis ability, % control.
Data set [3] concerns HepG2 cells. The experiment in a line: Measurement of gluconeogenesis (14C-lactate). The note with it: Homo sapiens, 200 uM, 24 h treatment, lower is better, read-out: gluconeogenesis (glucose synthesis ability), % control. It counts as cell-based.
Another data set concerns C2C12 cells. In words: Measurement of glucose absorption (3H-deoxy-glucose). The note with it: Mus musculus; 200 uM, differentiated C2C12 muscle cells, with 1 μM insulin 24 h; higher is better; read-out: glucose absorption, % control. It counts as cell-based.

As usually defined, the melting point is the temperature, or range, at which the solid turns liquid.

`COc1ccc(CNc2nc(N)nc(N(C)C)n2)cc1O` [Example 8, 5-((4-amino-6-(dimethylamino)-1,3,5-triazine-2-ylamino)methyl)-2-methoxyphenol] had a melting point of 141.4 to 142 °C. Also, the activity at 100 µM with HepG2 cells [1] came to 59.1%. For the same compound, the activity at 100 µM in the data set with HepG2 cells [2] is 106%. For the same compound, in the data set on HepG2 cells [3], the activity at 200 µM amounted to 94.8%. Also, in the data set with C2C12 cells, the activity at 200 µM was 126%.
